Counter-ions that a name gives are not always drawn.
Tested on: HepaRG
Assay: LDH release cytotoxicity, % of total lysis control; higher = more cytotoxic
Settings: 48 h
Summary of the method: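 Single-lot HepaRG cells on collagen I-coated 96-well plates were exposed for 48 h in duplicate, in serum-free induction medium with 0.5% DMSO, to eight-point half-log series (test chemicals top 100 µM). Total lysis wells received 0.1% Triton X, and LDH leakage into 50 µL spent medium was read as resorufin fluorescence (CytoTox-ONE, Tecan Safire). Percent cytotoxicity was normalized to on-plate vehicle and total lysis controls and averaged over the duplicates.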

CN(C)CCCN1c2ccccc2Sc2ccc(Cl)cc21 [Chlorpromazine hydrochloride]
Settings	LDH release cytotoxicity [%]
0.031623 µM	-1.42
0.1 µM	-1.97
0.316228 µM	-1.98
1 µM	-2.9
3.16228 µM	-1.62
10 µM	-1.31
31.6228 µM	10.7
100 µM	77.6

CC(C)OC(=O)Nc1cccc(Cl)c1 [Chlorpropham]
Settings	LDH release cytotoxicity [%]
0.03162 µM	-1.82
0.1 µM	-0.0252
0.3162278 µM	-2.28
1 µM	-2.1
3.16228 µM	-1.45
10 µM	-1.72
31.6228 µM	-1.01
100 µM	1.41

CCOP(=O)(OCC)Oc1nc(Cl)c(Cl)cc1Cl [Chlorpyrifos oxon]
Settings	LDH release cytotoxicity [%]
0.03162 µM	-1.8
0.1 µM	-1.33
0.3162278 µM	-1.43
1 µM	-1.55
3.16228 µM	-0.451
10 µM	0.221
31.6228 µM	0.828
100 µM	2.9

COP(=S)(OC)Oc1nc(Cl)c(Cl)cc1Cl [Chlorpyrifos-methyl]
Settings	LDH release cytotoxicity [%]
0.0314647 µM	-1.653
0.0995 µM	-0.997
0.3146466 µM	-0.895
0.995 µM	-1.1
3.14647 µM	-1.09
9.95 µM	-0.401
31.4647 µM	0.323
99.5 µM	3.84

CCOP(=S)(OCC)Oc1nc(Cl)c(Cl)cc1Cl [Chlorpyrifos]
Settings	LDH release cytotoxicity [%]
0.03162 µM	0.564
0.1 µM	-0.761
0.3162278 µM	-1.52
1 µM	-1.1
3.16228 µM	-0.11
10 µM	-0.852
31.6228 µM	-0.29
100 µM	0.964

COC(=O)c1c(Cl)c(Cl)c(C(=O)OC)c(Cl)c1Cl [Chlorthal-dimethyl]
Settings	LDH release cytotoxicity [%]
0.03162 µM	-0.87
0.1 µM	-0.884
0.3162278 µM	-1.01
1 µM	-0.618
3.16228 µM	-0.53
10 µM	0.0929
31.6228 µM	-0.208
100 µM	1.01

Cc1ccccc1COC1CC2(C(C)C)CCC1(C)O2 (stereo not given) [Cinmethylin]
Settings	LDH release cytotoxicity [%]
0.03162 µM	-0.203
0.1 µM	-1.15
0.3162278 µM	-1.3
1 µM	-1.23
3.16228 µM	-1.09
10 µM	-0.853
31.6228 µM	-0.668
100 µM	1.99

O=C(O)CC(O)(CC(=O)O)C(=O)O [Citric acid]
Settings	LDH release cytotoxicity [%]
0.03162 µM	0.134
0.1 µM	-0.835
0.3162278 µM	-0.0952
1 µM	-1.29
3.16228 µM	-0.803
10 µM	0.951
31.6228 µM	0.893
100 µM	0.958

CC(C)=CCCC(C)CCO (stereo not given) [Citronellol]
Settings	LDH release cytotoxicity [%]
0.03162 µM	-1.93
0.1 µM	-2.94
0.3162278 µM	-2.48
1 µM	-2.8
3.16228 µM	-2.02
10 µM	-2.14
31.6228 µM	-1.61
100 µM	0.398

Nc1nc(Cl)nc2c1ncn2C1CC(O)C(CO)O1 (stereo not given) [Cladribine]
Settings	LDH release cytotoxicity [%]
0.03162 µM	1.26
0.1 µM	0.387
0.3162278 µM	1.42
1 µM	1.39
3.16228 µM	3.14
10 µM	7.59
31.6228 µM	10.9
100 µM	13.4

C#CCOC(=O)C(C)Oc1ccc(Oc2ncc(Cl)cc2F)cc1 (stereo not given) [Clodinafop-propargyl]
Settings	LDH release cytotoxicity [%]
0.03162 µM	-1.35
0.1 µM	-1.3
0.3162278 µM	-1.68
1 µM	-0.544
3.16228 µM	-1.29
10 µM	-0.851
31.6228 µM	-0.0728
100 µM	0.27

Clc1ccccc1-c1nnc(-c2ccccc2Cl)nn1 [Clofentezine]
Settings	LDH release cytotoxicity [%]
0.03162 µM	-1.43
0.1 µM	-0.835
0.3162278 µM	-0.246
1 µM	-1.9
3.16228 µM	-0.967
10 µM	-1.22
31.6228 µM	-0.912
100 µM	0.757

CCOC(=O)C(C)(C)Oc1ccc(Cl)cc1 [Clofibrate]
Settings	LDH release cytotoxicity [%]
0.03162 µM	-0.811
0.1 µM	-0.737
0.3162278 µM	-1.03
1 µM	-0.873
3.16228 µM	-1.56
10 µM	-0.987
31.6228 µM	-0.0208
100 µM	1.51

CC1(C)CON(Cc2ccccc2Cl)C1=O [Clomazone]
Settings	LDH release cytotoxicity [%]
0.03162 µM	-5.32
0.1 µM	-6.75
0.3162278 µM	-6.22
1 µM	-6.24
3.16228 µM	-6.33
10 µM	-5.74
31.6228 µM	-5.91
100 µM	-4.53

CCN(CC)CCOc1ccc(C(=C(Cl)c2ccccc2)c2ccccc2)cc1 [Clomiphene citrate (1:1)]
Settings	LDH release cytotoxicity [%]
0.0265631 µM	-2.02
0.084 µM	-1.22
0.265631 µM	-0.767
0.84 µM	-1.18
2.6563132 µM	-0.65
8.4 µM	-1.17
26.563132 µM	9.07
84 µM	95.2

CC(Oc1cccc(Cl)c1)C(=O)O (stereo not given) [Cloprop]
Settings	LDH release cytotoxicity [%]
0.03162 µM	-1.06
0.1 µM	-0.561
0.3162278 µM	-0.691
1 µM	-0.434
3.16228 µM	-0.762
10 µM	-0.167
31.6228 µM	-0.608
100 µM	0.547

O=C(O)c1nc(Cl)ccc1Cl [Clopyralid-olamine]
Settings	LDH release cytotoxicity [%]
0.03162 µM	-1.75
0.1 µM	-1.37
0.3162278 µM	-2.18
1 µM	-3.35
3.16228 µM	-1.65
10 µM	-1.04
31.6228 µM	-1.18
100 µM	0.521

O=C(O)c1nc(Cl)ccc1Cl [Clopyralid]
Settings	LDH release cytotoxicity [%]
0.03162 µM	-0.598
0.1 µM	-1.08
0.3162278 µM	-0.606
1 µM	-1.03
3.16228 µM	-0.337
10 µM	0.0712
31.6228 µM	0.653
100 µM	2.21

Oc1ccc(Cl)cc1Cc1ccccc1 [Clorophene]
Settings	LDH release cytotoxicity [%]
0.031939 µM	-1.4
0.101 µM	-1.14
0.31939 µM	-1.6
1.01 µM	-1.11
3.1939004 µM	-0.749
10.1 µM	-0.231
31.939 µM	-0.479
101 µM	54

CN/C(=N\[N+](=O)[O-])NCc1cnc(Cl)s1 [Clothianidin]
Settings	LDH release cytotoxicity [%]
0.03162 µM	-0.975
0.1 µM	-0.34
0.3162278 µM	-1.12
1 µM	-0.952
3.16228 µM	-0.743
10 µM	-0.23
31.6228 µM	-0.557
100 µM	0.586

Reference: the supplement of paper PMC7840683
